Source: ChEMBL document CHEMBL2074228, “Cloning and functional characterization of a potential-sensitive, polyspecific organic cation transporter (OCT3) most abundantly expressed in placenta” (J Biol Chem, 1998)
Where “and” joins values, the source holds several entries; their conditions need not be identical. Equal values may be shown once.

Experiments:
[1] = biological target: T1, OCT3 (Solute carrier family 22 member 3) (Rattus norvegicus, UniProt O88446); experiment: TP_TRANSPORTER: inhibition of Guanidine uptake (Guanidine: 35 uM, MPTP: 5000 uM) in OCT3-expressing HeLa cells; format: functional, cell-based; parameters: scale not given: the % may be the effect or the level left; conditions: human, probe guanidine (35 uM), read-out: Activity
T1 sequence (O88446 whole entry): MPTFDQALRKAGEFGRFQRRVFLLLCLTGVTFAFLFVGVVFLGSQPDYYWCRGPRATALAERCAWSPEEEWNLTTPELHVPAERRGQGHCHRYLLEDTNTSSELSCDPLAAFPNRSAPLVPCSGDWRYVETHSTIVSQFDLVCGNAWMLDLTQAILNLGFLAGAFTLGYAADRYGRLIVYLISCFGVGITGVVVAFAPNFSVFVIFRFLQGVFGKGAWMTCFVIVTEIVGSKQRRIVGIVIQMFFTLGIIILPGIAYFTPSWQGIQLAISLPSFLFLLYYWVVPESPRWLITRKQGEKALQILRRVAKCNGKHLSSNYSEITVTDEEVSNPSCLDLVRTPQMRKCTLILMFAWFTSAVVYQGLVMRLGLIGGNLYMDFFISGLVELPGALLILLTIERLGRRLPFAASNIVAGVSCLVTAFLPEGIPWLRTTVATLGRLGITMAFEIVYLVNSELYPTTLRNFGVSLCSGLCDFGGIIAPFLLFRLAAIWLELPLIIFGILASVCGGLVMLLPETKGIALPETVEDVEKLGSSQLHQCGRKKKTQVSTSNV

[2] = biological target: T1, OCT3 (Solute carrier family 22 member 3); experiment: TP_TRANSPORTER: inhibition of Guanidine uptake (Guanidine: 35 uM, MPP+: 5000 uM) in OCT3-expressing HeLa cells; format: functional, cell-based; parameters: scale not given: the % may be the effect or the level left; conditions: human, probe guanidine (35 uM), read-out: Activity
[3] = biological target: T1, OCT3 (Solute carrier family 22 member 3); experiment: in vitro; conditions: human, OCT3-expressing HeLa cells, probe guanidine (35 uM)
[4] = biological target: T1, OCT3 (Solute carrier family 22 member 3); experiment: TP_TRANSPORTER: inhibition of Guanidine uptake (Guanidine: 35 uM, Desipramine: 5000 uM) in OCT3-expressing HeLa cells; format: functional, cell-based; parameters: scale not given: the % may be the effect or the level left; conditions: human, probe guanidine (35 uM), read-out: Activity
[5] = biological target: T2, Solute carrier family 22 member 3 (Rattus norvegicus, UniProt O88446); experiment: TP_TRANSPORTER: uptake in Xenopus laevis oocytes; format: functional, cell-based; conditions: oocyte
T2 sequence (O88446 whole entry): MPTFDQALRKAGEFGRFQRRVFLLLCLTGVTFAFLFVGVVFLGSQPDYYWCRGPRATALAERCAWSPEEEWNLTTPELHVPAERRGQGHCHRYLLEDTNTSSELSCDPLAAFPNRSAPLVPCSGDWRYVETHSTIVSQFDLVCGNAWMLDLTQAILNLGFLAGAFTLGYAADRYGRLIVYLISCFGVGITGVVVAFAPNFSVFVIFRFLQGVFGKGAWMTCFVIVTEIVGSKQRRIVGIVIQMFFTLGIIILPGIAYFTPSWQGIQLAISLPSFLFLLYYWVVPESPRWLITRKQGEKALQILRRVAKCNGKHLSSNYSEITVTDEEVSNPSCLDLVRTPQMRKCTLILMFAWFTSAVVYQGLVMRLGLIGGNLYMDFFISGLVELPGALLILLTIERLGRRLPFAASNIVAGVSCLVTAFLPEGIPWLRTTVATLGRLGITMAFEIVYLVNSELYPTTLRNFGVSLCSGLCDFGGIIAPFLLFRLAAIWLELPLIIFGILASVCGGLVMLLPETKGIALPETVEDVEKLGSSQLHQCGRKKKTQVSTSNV

[6] = biological target: T2, Solute carrier family 22 member 3; experiment: TP_TRANSPORTER: uptake in OCT3-expressing HeLa cells; format: functional, cell-based; conditions: human
[7] = biological target: T1, OCT3 (Solute carrier family 22 member 3); experiment: TP_TRANSPORTER: inhibition of Guanidine uptake (Guanidine: 35 uM, NMN: 5000 uM) in OCT3-expressing HeLa cells; format: functional, cell-based; parameters: scale not given: the % may be the effect or the level left; conditions: human, probe guanidine (35 uM), read-out: Activity
[8] = biological target: T1, OCT3 (Solute carrier family 22 member 3); experiment: TP_TRANSPORTER: inhibition of Guanidine uptake (Guanidine: 35 uM, TMA: 5000 uM) in OCT3-expressing HeLa cells; format: functional, cell-based; parameters: scale not given: the % may be the effect or the level left; conditions: human, probe guanidine (35 uM), read-out: Activity
[9] = biological target: T1, OCT3 (Solute carrier family 22 member 3); experiment: in vitro; conditions: human, OCT3-expressing HeLa cells, probe guanidine (35 uM); remark: listed apart in the source
Description: TP_TRANSPORTER: inhibition of Guanidine uptake (Guanidine: 35 uM, TEA: 5000 uM) in OCT3-expressing HeLa cells

[10] = biological target: T1, OCT3 (Solute carrier family 22 member 3); experiment: TP_TRANSPORTER: inhibition of Guanidine uptake (Guanidine: 35 uM, Serotonin: 5000 uM) in OCT3-expressing HeLa cells; format: functional, cell-based; parameters: scale not given: the % may be the effect or the level left; conditions: human, probe guanidine (35 uM), read-out: Activity
[11] = substrate: CC[N+](CC)(CC)CC; experiment: cells, lysate or membranes named

With `CN1CC=C(c2ccccc2)CC1` the activity at 5000 µM [1] was 14%.

Work on `C[n+]1ccc(-c2ccccc2)cc1` yielded an activity at 5000 µM [2] of 22%.

With `CN1CCC[C@H]1c1cccnc1` [NICOTINE] the activity at 5000 µM [3] was 52%.

In the case of `CNCCCN1c2ccccc2CCc2ccccc21` [DESIPRAMINE], the activity at 5000 µM [4] is reported as 1%.

For `N=C(N)N` [GUANIDINE], the Activity [5] was “substrate [+]” and the Activity [6] was “substrate [+]”.

`CNC(=O)c1cccnc1` [NICOTINYL METHYLAMIDE] was tested, and the activity at 5000 µM [7] was 33%.

In the case of `C[N+](C)(C)C` [TETRAMETHYLAMMONIUM], the activity at 5000 µM [8] is reported as 59%.

`CC[N+](CC)(CC)CC` [TETRYLAMMONIUM] gave an activity at 5000 µM [9] of 41%.

For `NCCc1c[nH]c2ccc(O)cc12` [SEROTONIN], the activity at 5000 µM [10] was 30%.

B1: Solute carrier family 22 member 3 (Rattus norvegicus) (protein)
chain: MPTFDQALRKAGEFGRFQRRVFLLLCLTGVTFAFLFVGVVFLGSQPDYYWCRGPRATALAERCAWSPEEEWNLTTPELHVPAERRGQGHCHRYLLEDTNTSSELSCDPLAAFPNRSAPLVPCSGDWRYVETHSTIVSQFDLVCGNAWMLDLTQAILNLGFLAGAFTLGYAADRYGRLIVYLISCFGVGITGVVVAFAPNFSVFVIFRFLQGVFGKGAWMTCFVIVTEIVGSKQRRIVGIVIQMFFTLGIIILPGIAYFTPSWQGIQLAISLPSFLFLLYYWVVPESPRWLITRKQGEKALQILRRVAKCNGKHLSSNYSEITVTDEEVSNPSCLDLVRTPQMRKCTLILMFAWFTSAVVYQGLVMRLGLIGGNLYMDFFISGLVELPGALLILLTIERLGRRLPFAASNIVAGVSCLVTAFLPEGIPWLRTTVATLGRLGITMAFEIVYLVNSELYPTTLRNFGVSLCSGLCDFGGIIAPFLLFRLAAIWLELPLIIFGILASVCGGLVMLLPETKGIALPETVEDVEKLGSSQLHQCGRKKKTQVSTSNV
For B1, the Km [11] was 2.5 mM and 6.2 mM.
